These results are taken from ChEMBL document CHEMBL1201862, “PubChem BioAssay data set” (2004).

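Values below derive from 48-hour exposures of cells grown in 96-well plates, with endpoints linearly interpolated between the two concentrations bracketing the appropriate inhibition level. Here, GI50 denotes the concentration required for 50% inhibition of growth.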 Activity calls are given as the source filed them. Rule as the data show it: active = GI50 up to about 1.1 µM and inactive = higher. Bounds are passed on as bounds.

Among the test systems are CAKI-1; COLO 205; EKVX; NCI-H226; NCI-H460; OVCAR-4; RXF 393; SF-268; SK-OV-3; SNB-19; SR; SW-620; TK-10; U-251; M14; SK-MEL-5; SNB-75; UACC-62.
Common to all, as to assay: NCI anticancer screen, dose series, 48 h

As for `O=C1OC(=O)C2C3C=CC(C12)C1C2C=CC2C31` (configuration not stated), the GI50 in the experiment on CAKI-1, in the experiment on COLO 205, in the experiment on EKVX, with NCI-H226, with NCI-H460 and in the experiment on OVCAR-4 was > 100 µM (inactive) each time. For the same molecule, the GI50 in the experiment on RXF 393, in the experiment on SF-268, in the experiment on SK-OV-3, in the experiment with SNB-19, in the experiment on SR and in the experiment on SW-620 was > 100 µM (inactive) in each case. For the same molecule, the GI50 in the experiment with TK-10 and with U-251 was > 100 µM (inactive) each time.

Regarding `CCCC/C(C)=N/NC(N)=S`, the GI50 with CAKI-1, in the experiment with COLO 205, in the experiment on EKVX, in the experiment on M14, in the experiment with NCI-H226 and in the experiment on NCI-H460 was > 100 µM (inactive) each time. The GI50 in the experiment with RXF 393, in the experiment on SF-268, with SK-MEL-5, in the experiment with SK-OV-3, in the experiment with SNB-19 and in the experiment on SNB-75 was > 100 µM (inactive) throughout. Moreover, the GI50 with SR, in the experiment on SW-620, with TK-10, in the experiment on U-251 and with UACC-62 was > 100 µM (inactive) throughout.

Consider `NNC(=O)N/N=C(/CC1(O)C(=O)Nc2ccc(Br)cc21)c1ccccc1` (configuration not stated), for which the GI50 was 30.3 µM (inactive) in the experiment with CAKI-1; 22.7 µM (inactive) in the experiment on EKVX; 37.6 µM (inactive) in the experiment on M14; 82.6 µM (inactive) in the experiment with NCI-H226; 21.5 µM (inactive) in the experiment on SF-268; 40.2 µM (inactive) in the experiment with SK-OV-3. The GI50 in the experiment on SNB-19 is 11.8 µM (inactive); in the experiment on SNB-75 it was 9.27 µM (inactive); in the experiment with SR it was 31.6 µM (inactive); in the experiment with SW-620 it was 50 µM (inactive); with TK-10, 55.6 µM (inactive); in the experiment with U-251 it was > 10 µM (inactive). Besides, the GI50 in the experiment on UACC-62 is 19.8 µM (inactive).

Turning to `COc1cc2ccc1-c1cc(ccc1O)CC1c3cc4c(cc3CCN1C)Oc1c(OC)cc3c(c1O4)C(C2)N(C)CC3` (configuration not stated), the GI50 with CAKI-1 is 2.52 µM (inactive); with EKVX it was 2.1 µM (inactive); with M14, 1.82 µM (inactive); with NCI-H226, 2.22 µM (inactive); with NCI-H460 it was 1.75 µM (inactive); in the experiment with OVCAR-4, 1.96 µM (inactive). Besides, the GI50 was 1.67 µM (inactive) with RXF 393; 1.81 µM (inactive) with SF-268; 2.08 µM (inactive) with SK-MEL-5; 1.98 µM (inactive) in the experiment on SNB-19; 1.8 µM (inactive) with SNB-75; 1.85 µM (inactive) in the experiment with SR. Besides, the GI50 in the experiment on SW-620 is 1.84 µM (inactive); in the experiment with TK-10, 12.2 µM (inactive); in the experiment with U-251, 1.69 µM (inactive); in the experiment with UACC-62, 2 µM (inactive).

As to `COC(=O)C(C#N)C1NC(=O)c2ccccc21` (configuration not stated), the GI50 with COLO 205, in the experiment on EKVX, in the experiment on M14, in the experiment on NCI-H226, in the experiment with NCI-H460 and in the experiment on OVCAR-4 was > 100 µM (inactive) each time. Moreover, the GI50 in the experiment with RXF 393 is > 100 µM (inactive); in the experiment on SF-268 it was > 100 µM (inactive); in the experiment on SK-MEL-5, > 100 µM (inactive); in the experiment on SK-OV-3 it was > 100 µM (inactive); in the experiment with SNB-19, > 100 µM (inactive); with SNB-75 it was 9.71 µM (inactive). The GI50 in the experiment with SR, in the experiment with SW-620, in the experiment on TK-10, with U-251 and in the experiment with UACC-62 was > 100 µM (inactive) each time.

Regarding `COc1ccc(/C(=N/O)C(c2ccc(OC)cc2)C2C(=O)Oc3ccccc32)cc1` (configuration not stated), the GI50 is 92 µM (inactive) in the experiment with CAKI-1; 1.66 µM (inactive) in the experiment on COLO 205; 53.1 µM (inactive) in the experiment on EKVX; 51.3 µM (inactive) with M14; 37.2 µM (inactive) in the experiment with NCI-H226; 71.3 µM (inactive) in the experiment with NCI-H460. Moreover, the GI50 in the experiment on OVCAR-4 was 48.6 µM (inactive); with SF-268, > 100 µM (inactive); in the experiment on SK-MEL-5 it was 24.8 µM (inactive); in the experiment with SK-OV-3, > 100 µM (inactive); in the experiment with SNB-75, 82.8 µM (inactive); in the experiment with SR, > 100 µM (inactive). Besides, the GI50 was > 100 µM (inactive) in the experiment with SW-620, > 100 µM (inactive) with TK-10, 87.5 µM (inactive) with U-251 and 82 µM (inactive) in the experiment with UACC-62.

`N#CC(c1nc2ccccc2nc1Cl)S(=O)(=O)c1ccccc1` (configuration not stated): the GI50 in the experiment with CAKI-1 is 51.3 µM (inactive); in the experiment on COLO 205, > 100 µM (inactive); in the experiment on EKVX, > 100 µM (inactive); with M14, > 100 µM (inactive); with NCI-H226 it was > 100 µM (inactive); in the experiment with NCI-H460, > 100 µM (inactive). Moreover, the GI50 in the experiment with OVCAR-4 is 53.3 µM (inactive); in the experiment with SF-268, > 100 µM (inactive); in the experiment with SK-MEL-5, > 100 µM (inactive); with SNB-19, > 100 µM (inactive); in the experiment on SNB-75 it was > 100 µM (inactive); in the experiment with SR it was > 100 µM (inactive). Moreover, the GI50 with SW-620 was 69.3 µM (inactive); with TK-10, > 100 µM (inactive); in the experiment on U-251, 83.8 µM (inactive); in the experiment on UACC-62, 35.8 µM (inactive).

`NC1=NS(=O)(=O)Nc2nc(-c3ccc([N+](=O)[O-])o3)[nH]c21`: the GI50 was 21.3 µM (inactive) in the experiment with CAKI-1; > 10 µM (inactive) in the experiment on COLO 205; 14.9 µM (inactive) in the experiment on M14; 20.2 µM (inactive) with NCI-H460; 17.1 µM (inactive) in the experiment on OVCAR-4; 12.9 µM (inactive) in the experiment with RXF 393. For the same molecule, the GI50 is 20 µM (inactive) in the experiment on SF-268; 18.3 µM (inactive) in the experiment with SK-MEL-5; > 10 µM (inactive) in the experiment with SK-OV-3; 16.7 µM (inactive) with SNB-19; 16 µM (inactive) in the experiment with SNB-75; 4.73 µM (inactive) with SR. For the same molecule, the GI50 with SW-620 was 13.8 µM (inactive); in the experiment on TK-10, 19 µM (inactive); in the experiment with U-251, 16.9 µM (inactive); with UACC-62 it was 15.9 µM (inactive).

With `COc1cc(OC)c([C@@H]2OC(=O)C3C2C(=O)O[C@H]3c2cc(OC)c(OC)cc2OC)cc1OC` (some centres not stated), the GI50 is > 100 µM (inactive) with CAKI-1; > 100 µM (inactive) in the experiment with COLO 205; > 100 µM (inactive) in the experiment with EKVX; > 100 µM (inactive) with M14; > 100 µM (inactive) with NCI-H460; 45.4 µM (inactive) in the experiment with OVCAR-4. In addition, the GI50 in the experiment on RXF 393 is > 100 µM (inactive); in the experiment with SK-OV-3, > 100 µM (inactive); in the experiment with SNB-19 it was > 100 µM (inactive); with SNB-75, > 100 µM (inactive); with SR it was 51.6 µM (inactive); with SW-620 it was > 10 µM (inactive). Also, the GI50 in the experiment on U-251 and in the experiment with UACC-62 was > 100 µM (inactive) throughout.

With `O=S1(=O)OCCOS(=O)(=O)C1Cl`, the GI50 in the experiment on CAKI-1, with COLO 205, in the experiment with EKVX, with M14, with NCI-H226 and with OVCAR-4 was > 100 µM (inactive) each time. The GI50 in the experiment on SF-268, in the experiment on SK-MEL-5, with SK-OV-3, with SNB-19, in the experiment on SNB-75 and in the experiment on SR was > 100 µM (inactive) throughout. For the same molecule, the results for the GI50 with SW-620, in the experiment on TK-10 and with UACC-62 were > 100 µM (inactive), > 100 µM (inactive) and 82.6 µM (inactive), respectively.

Regarding `COC(=O)CC(C(C(=O)OCc1ccccc1)C(C)O)N1C(=O)OCC1c1ccccc1` (configuration not stated), the GI50 with COLO 205 is 48.4 µM (inactive); with EKVX, 62.1 µM (inactive); in the experiment with M14, > 100 µM (inactive); in the experiment with NCI-H226, 31.6 µM (inactive); in the experiment on NCI-H460, 68.2 µM (inactive); with OVCAR-4 it was 84.1 µM (inactive). Further, the GI50 with RXF 393 is 95.7 µM (inactive); in the experiment with SF-268, 97.5 µM (inactive); with SK-MEL-5, 42.3 µM (inactive); in the experiment with SNB-19, 75.2 µM (inactive); in the experiment on SNB-75, 20 µM (inactive); in the experiment with SR, 38.1 µM (inactive). Moreover, the GI50 in the experiment on SW-620 was > 100 µM (inactive); with TK-10, > 100 µM (inactive); in the experiment with U-251, 83 µM (inactive); in the experiment with UACC-62, 35.6 µM (inactive).

In the case of `Cc1c(N)nc(C(CC(N)=O)NCC(N)C(N)=O)nc1C(=O)NC(C(=O)NC(C)C(O)C(C)C(=O)NC(C(=O)NCCc1nc(-c2nc(C(=O)NCCCNCCCCN)cs2)cs1)C(C)O)C(OC1OC(CO)C(O)C(O)C1OC1OC(CO)C(O)C(OC(N)=O)C1O)c1c[nH]cn1` (configuration not stated), the GI50 in the experiment with CAKI-1 is 0.00178 µM (active); in the experiment on COLO 205, > 10 µM (inactive); in the experiment on EKVX, > 10 µM (inactive); in the experiment on M14, 1.67 µM (inactive); in the experiment with NCI-H226, 0.233 µM (active); in the experiment with NCI-H460, 0.143 µM (active). The GI50 was > 6.46 µM (inactive) with OVCAR-4; 0.29 µM (active) with RXF 393; 1.18 µM (inactive) in the experiment on SF-268; 2.43 µM (inactive) in the experiment on SK-MEL-5; > 10 µM (inactive) with SK-OV-3; > 10 µM (inactive) in the experiment on SNB-19. In addition, the GI50 in the experiment with SNB-75 was 0.202 µM (active); in the experiment with SW-620, > 10 µM (inactive); in the experiment with TK-10, > 10 µM (inactive); in the experiment with U-251 it was > 10 µM (inactive); in the experiment on UACC-62 it was 2.71 µM (inactive).
